Reference: patent EP2322194A2 (Reprise Biopharmaceutics, LLC, priority 2003, dated 2005)
“And” between values parts separate entries of the source, which are not always exact repeats. Equal entries are not always repeated. Where two headings read alike, the source gives them in different places.

Test system: over-hydrated, healthy, non-smoking male and female volunteers
Type: in vivo, human
Conditions: for Mean peak urine osmolality: at 2 hours; for Mean nadir urine output: end of 2 hour infusion; for Urine Output / Urine Osmolality: individual subjects
Protocol: Briefly, an open-label, crossover study with 8 healthy, over-hydrated, non-smoking male and female volunteers, age 18-40. The subjects were dosed initially with 0.5 ng/kg dose, then with the 1.0 ng/kg dose and finally the 2.0 ng/kg dose. Pharmacodynamic and pharmacokinetic parameters were evaluated at each dose level. A washout period of two days (48 hours) was observed between dosing. Eight subjects evaluated in this study, 5 males, and 3 females. […] Each subject remained in the clinic from one day prior to first dosing to one day after last dosing for a total of 7 days. […] At this point over-hydration was discontinued. […] Urine-specific gravity was also measured. […] This same procedure was followed for the 1.0 ng/kg and 2.0 ng/kg infusions. […] Criteria for evaluation in the study included urine output over time, urine osmolality over time, urine-specific gravity over time, and […] osmolality and sodium over time. Statistical analysis on the above criteria was performed. The statistical analysis is descriptive and all statistical hypothesis testing was done for exploratory purposes. […] The second and third estimation used 200 mOsm/kg and 400 mOsm/kg as cut off levels for 'onset' and 'end' of action, respectively. […] The overall duration of action was estimated for each dose group using the nonparametric Kaplan-Meier method. […] Furthermore, the duration of action was presented for each treatment group using the mean, SD, median, minimum and maximum values. The dose-response relationship between duration of action and dose was investigated using an appropriate linear or nonlinear model.

[1] = 0.5 ng/kg, time 0 min (baseline)
[2] = 0.5 ng/kg, time -20 min (baseline)
[3] = 1.0 ng/kg, time 0 min (baseline)

1-desamino-8-D-arginine vasopressin [desmopressin]
duration of antidiuretic effect (0.5 ng/kg dose): approximately 180 minutes
Mean peak urine osmolality (0.5 ng/kg dose): 206.0 mOsm/kg
Baseline mean urine osmolality (0.5 ng/kg dose): 55.8 mOsm/kg
Baseline mean urine output (0.5 ng/kg dose): 18.6 mL/min
Mean nadir urine output (0.5 ng/kg dose): 7.1 mL/min
Urine Osmolality, Mean [1]: 57.6 mOsm/kg
Urine Output, Mean [1]: 18.4 mL/min
Urine Osmolality, Mean (0.5 ng/kg, time 20 min): 73.1 mOsm/kg
Urine Output (0.5 ng/kg, time 20 min): 16.7 mL/min (2×) and 16.4 mL/min and 11.8 mL/min
Urine Osmolality, Mean (0.5 ng/kg, time 40 min): 108.3 mOsm/kg
Urine Output, Mean (0.5 ng/kg, time 40 min): 10.3 mL/min
Urine Osmolality, Mean (0.5 ng/kg, time 60 min): 136.1 mOsm/kg
Urine Output, Mean (0.5 ng/kg, time 60 min): 9.6 mL/min
Urine Osmolality, Mean (0.5 ng/kg, time 80 min): 165.8 mOsm/kg
Urine Osmolality, Mean (0.5 ng/kg, time 100 min): 186.3 mOsm/kg
Urine Output, Mean (0.5 ng/kg, time 100 min): 7.7 mL/min
Urine Osmolality, Mean (0.5 ng/kg, time 120 min): 206.0 mOsm/kg
Urine Output, Mean (0.5 ng/kg, time 120 min): 7.1 mL/min
Urine Osmolality, Mean (0.5 ng/kg, time 140 min): 188.3 mOsm/kg
Urine Output, Mean (0.5 ng/kg, time 140 min): 9.6 mL/min
Urine Osmolality, Mean (0.5 ng/kg, time 160 min): 155.8 mOsm/kg
Urine Output, Mean (0.5 ng/kg, time 160 min): 9.7 mL/min
Urine Osmolality, Mean (0.5 ng/kg, time 180 min): 136.8 mOsm/kg
Urine Output, Mean (0.5 ng/kg, time 180 min): 11.1 mL/min
Urine Osmolality, Mean (0.5 ng/kg, time 200 min): 157.8 mOsm/kg
Urine Output, Mean (0.5 ng/kg, time 200 min): 10.4 mL/min
Urine Osmolality, Mean (0.5 ng/kg, time 220 min): 136.5 mOsm/kg
Urine Output, Mean (0.5 ng/kg, time 220 min): 10.4 mL/min
Urine Osmolality, Mean (0.5 ng/kg, time 240 min): 141.7 mOsm/kg
Urine Output (0.5 ng/kg, time 240 min): 10.5 mL/min and 11.4 mL/min and 4.2 mL/min
Urine Osmolality, Mean (0.5 ng/kg, time 260 min): 147.5 mOsm/kg
Urine Output, Mean (0.5 ng/kg, time 260 min): 9.7 mL/min
Urine Osmolality (0.5 ng/kg, time 260 min): 80 mOsm/kg and 215 mOsm/kg
Urine Osmolality, Mean (0.5 ng/kg, time 280 min): 169.0 mOsm/kg
Urine Osmolality (0.5 ng/kg, time 280 min): 88 mOsm/kg and 250 mOsm/kg
Urine Osmolality, Mean (0.5 ng/kg, time 300 min): 193.0 mOsm/kg
Urine Output, Mean (0.5 ng/kg, time 300 min): 4.1 mL/min
Urine Osmolality (0.5 ng/kg, time 300 min): 193 mOsm/kg
Urine Output (0.5 ng/kg, time 300 min): 4.1 mL/min
Urine Osmolality, Mean (0.5 ng/kg, time 320 min): 156.0 mOsm/kg
Urine Output, Mean (0.5 ng/kg, time 320 min): 5.0 mL/min
Urine Osmolality (0.5 ng/kg, time 320 min): 156 mOsm/kg
Urine Output (0.5 ng/kg, time 320 min): 5 mL/min
Urine Osmolality, Mean (0.5 ng/kg, time 340 min): 133.0 mOsm/kg
Urine Output, Mean (0.5 ng/kg, time 340 min): 6.4 mL/min
Urine Osmolality (0.5 ng/kg, time 340 min): 133 mOsm/kg
Urine Output (0.5 ng/kg, time 340 min): 6.4 mL/min
Urine Osmolality, Mean (0.5 ng/kg, time 360 min): 120.0 mOsm/kg
Urine Output, Mean (0.5 ng/kg, time 360 min): 7.3 mL/min
Urine Osmolality (0.5 ng/kg, time 360 min): 120 mOsm/kg
Urine Output (0.5 ng/kg, time 360 min): 7.3 mL/min
Urine Osmolality, Mean [2]: 55.8 mOsm/kg
Urine Output, Mean [2]: 18.6 mL/min
Mean peak urine osmolality (1.0 ng/kg dose): 444.7 mOsm/kg
Baseline mean urine osmolality (1.0 ng/kg dose): 55.8 mOsm/kg
Baseline mean urine output (1.0 ng/kg dose): 16.6 mL/min
Mean nadir urine output (1.0 ng/kg dose): 1.3 mL/min
Urine Osmolality, Mean [3]: 56.5 mOsm/kg
Urine Output, Mean [3]: 16.7 mL/min
Urine Output [3]: 17.4 mL/min
Urine Osmolality, Mean (1.0 ng/kg, time 20 min): 67.1 mOsm/kg
Urine Output (1.0 ng/kg, time 20 min): 11.2 mL/min and 10.4 mL/min
Urine Osmolality, Mean (1.0 ng/kg, time 40 min): 167.0 mOsm/kg
Urine Output, Mean (1.0 ng/kg, time 40 min): 7.0 mL/min
Urine Output (1.0 ng/kg, time 40 min): 5.7 mL/min and 7.6 mL/min
Urine Osmolality, Mean (1.0 ng/kg, time 60 min): 259.4 mOsm/kg
Urine Output, Mean (1.0 ng/kg, time 60 min): 3.7 mL/min
Urine Output (1.0 ng/kg, time 60 min): 3.5 mL/min
Urine Osmolality, Mean (1.0 ng/kg, time 80 min): 322.8 mOsm/kg
Urine Output, Mean (1.0 ng/kg, time 80 min): 2.0 mL/min
Urine Output (1.0 ng/kg, time 80 min): 0 mL/min
Urine Osmolality, Mean (1.0 ng/kg, time 100 min): 375.5 mOsm/kg
Urine Output, Mean (1.0 ng/kg, time 100 min): 2.5 mL/min
Urine Output (1.0 ng/kg, time 100 min): 3.7 mL/min
Urine Osmolality, Mean (1.0 ng/kg, time 120 min): 444.7 mOsm/kg
Urine Output, Mean (1.0 ng/kg, time 120 min): 1.3 mL/min
Urine Output (1.0 ng/kg, time 120 min): 0 mL/min
